From publication PMC9596378, “Discovery and molecular basis of subtype-selective cyclophilin inhibitors” (Nature Chemical Biology, 2022)
“And” between values parts separate entries of the source, which are not always exact repeats. Equal values may be shown once. Read-outs that look alike come from different tables or passages of the source.

Key:
[1] = biological target: T1, CypG (Homo sapiens, UniProt Q13427); assay: Chymotrypsin coupled prolyl-isomerase assay; assay type: biochemical; settings: wild-type CypG; read-out: Wild-Type Cyclophilin Prolyl Isomerase Inhibition IC50 Values, CypG
T1 construct: PPIG (UniProtKB Entry Q13427: residues 1–179); His6 with thrombin site (pET28a LIC leader) (N); host or cells: E. coli BL21(DE3)
T1 sequence (Q13427 1-179): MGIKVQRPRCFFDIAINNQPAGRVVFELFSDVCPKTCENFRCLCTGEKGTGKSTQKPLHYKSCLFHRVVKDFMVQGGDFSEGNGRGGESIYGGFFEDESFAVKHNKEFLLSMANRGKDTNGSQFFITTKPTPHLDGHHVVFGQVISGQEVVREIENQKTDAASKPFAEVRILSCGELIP
Outline: (§1)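 Steps: cyclophilin plus compound 5 min at 2–3 °C; α-chymotrypsin added, 5 min more; Suc-AAPF-AMC substrate in LiCl/trifluoroethanol injected and fluorescence followed 330 s. Finals: 5 nM enzyme, 25 µM chymotrypsin, 5 µM substrate, 0.25% DMSO.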

[2] = biological target: T2, CypH (Homo sapiens, UniProt O43447); assay: Chymotrypsin coupled prolyl-isomerase assay; assay type: biochemical; settings: for prolyl-isomerase activity (raw dose-response value): CypH
T2 construct: PPIH (UniProtKB Entry O43447: residues 1–177); His6 with TEV site (2BT vector leader) (N); made in house; host or cells: E. coli BL21(DE3)
T2 sequence (O43447 whole entry, the tested form may be a part): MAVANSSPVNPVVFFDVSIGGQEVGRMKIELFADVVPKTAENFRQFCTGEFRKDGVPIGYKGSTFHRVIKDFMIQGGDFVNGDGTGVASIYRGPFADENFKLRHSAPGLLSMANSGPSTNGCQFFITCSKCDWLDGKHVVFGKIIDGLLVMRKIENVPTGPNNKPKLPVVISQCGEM
Outline: as §1

[3] = biological target: T3, CypB (Homo sapiens, UniProt P23284); assay: biochemical; settings: for prolyl-isomerase activity (raw dose-response value): CypB
T3 construct: PPIB (UniProtKB Entry P23284: residues 34–216); His6 with TEV site (2BT vector leader) (N); made in house; host or cells: E. coli BL21(DE3)
T3 sequence (P23284 34-216): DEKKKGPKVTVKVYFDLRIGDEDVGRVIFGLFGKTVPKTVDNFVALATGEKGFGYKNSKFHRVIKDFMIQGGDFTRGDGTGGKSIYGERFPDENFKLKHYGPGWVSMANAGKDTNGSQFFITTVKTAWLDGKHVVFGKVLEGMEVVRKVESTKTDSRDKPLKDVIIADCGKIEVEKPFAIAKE
Outline: as §1

[4] = biological target: Cyp40 (Homo sapiens, UniProt Q08752); assay: Chymotrypsin coupled prolyl-isomerase assay; settings: for prolyl-isomerase activity (raw dose-response value): in s^-1
Sequence of Cyp40 (Q08752 1-183): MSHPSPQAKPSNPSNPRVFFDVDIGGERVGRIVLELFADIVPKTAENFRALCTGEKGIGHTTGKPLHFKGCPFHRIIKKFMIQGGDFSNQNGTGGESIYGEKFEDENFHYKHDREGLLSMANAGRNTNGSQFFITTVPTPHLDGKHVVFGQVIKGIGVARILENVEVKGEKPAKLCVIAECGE
Procedure: Adapting a previously described protocol, with an Agilent Bravo Velocity 11 with a 384ST head, 90 µL assay buffer (25 mM HEPES pH 7.3, 100 mM NaCl, 0.01% Triton X-100) containing 5.28 nM cyclophilin was added into a flat, clear-bottom, black 384-well plate pre-chilled in a Corning CoolBox at 2–3 °C. Five microliters of compound pre-dissolved in 5% DMSO/assay buffer was then added to appropriate wells and incubated at 2–3 °C for 5 min. Five microliters of 0.5 mM α-chymotrypsin from bovine pancreas (Type II, lyophilized powder, Millipore-Sigma) in 20% 1 mM HCl/Assay Buffer was then added to each well and incubated at 2–3 °C for 5 min. The plate was then quickly transferred to a FLIPR Tetra High-Throughput Cellular Screening System (Molecular Devices). Using the internal liquid handling system of the FLIPR, 1 µL 0.5 mM Suc-AAPF-AMC (Chymotrypsin Substrate II, Millipore-Sigma) dissolved in 0.55 M LiCl/2,2,2-trifluoroethanol was added to each well, which was then mixed for 5 s, followed by immediate fluorescence measurements every 1 s for 330 s using a 360–380 nm excitation LED module and a 400–460 nm emission filter. Final concentrations of the plate include 5 nM cyclophilin, 0.25% DMSO, 25 µM α-chymotrypsin, 5 µM Suc-AAPF-AMC. Raw fluorescence data was analyzed by non-linear regression analysis with Prism v.9 by fitting one-phase association curves to each well. […] Rate constants calculated for each well (s^−1) were then normalized to substrate only (no prolyl-isomerase) and enzyme + substrate only controls. IC50 values were calculated as the value at which 50% inhibition was achieved on the non-linear regression fitted curve of each compound.

[5] = biological target: T4, NKTR (Homo sapiens, UniProt P30414); assay: Chymotrypsin coupled prolyl-isomerase assay; assay type: biochemical; settings: for prolyl-isomerase activity (raw dose-response value): NKTR
T4 construct: NKTR (UniProtKB Entry P30414: residues 7–179); host or cells: E. coli BL21(DE3)
T4 sequence (P30414 7-179): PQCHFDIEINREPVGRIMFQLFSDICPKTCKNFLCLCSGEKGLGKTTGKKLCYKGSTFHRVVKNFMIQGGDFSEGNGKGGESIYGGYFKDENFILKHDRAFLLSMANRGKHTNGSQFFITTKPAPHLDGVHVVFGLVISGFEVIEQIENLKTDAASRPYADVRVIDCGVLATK

## NCCOCCNC(=O)[C@@H]1CCNC(=O)/C=C/C(=O)N2CCC[C@](Cc3ccccc3)(C2)C(=O)N[C@@H](Cc2ccc(-c3ccccc3)cc2)C(=O)NCc2ccccc2CC(=O)N1 [Compound B2]
[1]
  IC50: 37 µM
[2]; dose 0.0228624 µM
  prolyl-isomerase activity (raw dose-response value): 0.05989 and 0.06269 and 0.07687
[2]; dose 0.0685871 µM
  prolyl-isomerase activity (raw dose-response value): 0.06674 and 0.06641 and 0.06471
[2]; dose 0.205761 µM
  prolyl-isomerase activity (raw dose-response value): 0.06507 and 0.06674 and 0.06594
[2]; dose 0.617284 µM
  prolyl-isomerase activity (raw dose-response value): 0.06577 and 0.07132 and 0.06657
[2]; dose 1.85185 µM
  prolyl-isomerase activity (raw dose-response value): 0.06049 and 0.06065 and 0.0705
[2]; dose 5.55556 µM
  prolyl-isomerase activity (raw dose-response value): 0.06127 and 0.06318 and 0.06895
[2]; dose 16.6667 µM
  prolyl-isomerase activity (raw dose-response value): 0.05909 and 0.0562 and 0.05955
[2]; dose 50 µM
  prolyl-isomerase activity (raw dose-response value): 0.04477 and 0.04513 and 0.04995
[2]; prolyl-isomerase inhibition, 5 nM cyclophilin, read-out: IC50 CypH
  IC50: ~100 µM
[2]; wild-type CypH, read-out: Wild-Type Cyclophilin Prolyl Isomerase Inhibition IC50 Values, CypH
  IC50: 100 µM
[3]; dose 0.00457247 µM
  prolyl-isomerase activity (raw dose-response value): 0.09192 and 0.1036 and 0.1252
[3]; dose 0.0137174 µM
  prolyl-isomerase activity (raw dose-response value): 0.09377 and 0.09227 and 0.1138
[3]; dose 0.0411523 µM
  prolyl-isomerase activity (raw dose-response value): 0.08535 and 0.07571 and 0.07363
[3]; dose 0.123457 µM
  prolyl-isomerase activity (raw dose-response value): 0.076 and 0.06873 and 0.07349
[3]; dose 0.37037 µM
  prolyl-isomerase activity (raw dose-response value): 0.05318 and 0.03953 and 0.04525
[3]; dose 1.11111 µM
  prolyl-isomerase activity (raw dose-response value): 0.03174 and 0.02714 and 0.02735
[3]; dose 3.33333 µM
  prolyl-isomerase activity (raw dose-response value): 0.02002 and 0.01837 and 0.01843
[3]; dose 10 µM
  prolyl-isomerase activity (raw dose-response value): 0.01579 and 0.01529 and 0.01363
[3]; wild-type CypB, read-out: Wild-Type Cyclophilin Prolyl Isomerase Inhibition IC50 Values, CypB
  IC50: 0.16 µM
[4]; Cyp40, dose 0.0228624 µM
  prolyl-isomerase activity (raw dose-response value): 0.06439 and 0.06966 and 0.09224
[4]; Cyp40, dose 0.0685871 µM
  prolyl-isomerase activity (raw dose-response value): 0.06672 and 0.05591 and 0.0674
[4]; Cyp40, dose 0.205761 µM
  prolyl-isomerase activity (raw dose-response value): 0.05415 and 0.04361 and 0.05573
[4]; Cyp40, dose 0.617284 µM
  prolyl-isomerase activity (raw dose-response value): 0.04036 and 0.03584 and 0.03686
[4]; Cyp40, dose 1.85185 µM
  prolyl-isomerase activity (raw dose-response value): 0.02841 and 0.02381 and 0.02316
[4]; Cyp40, dose 5.55556 µM
  prolyl-isomerase activity (raw dose-response value): 0.01852 and 0.01638 and 0.01429
[4]; Cyp40, dose 16.6667 µM
  prolyl-isomerase activity (raw dose-response value): 0.0159 and 0.01466 and 0.0158
[4]; Cyp40, dose 50 µM
  prolyl-isomerase activity (raw dose-response value): 0.01447 and 0.01343 and 0.01173
[4]; Wild-Type Cyclophilin Prolyl Isomerase Inhibition IC50 Values, Cyp40, wild-type Cyp40
  IC50: 0.26 µM
[5]; dose 0.0457247 µM
  prolyl-isomerase activity (raw dose-response value): 0.03158 and 0.03033 and 0.03469
[5]; dose 0.137174 µM
  prolyl-isomerase activity (raw dose-response value): 0.03164 and 0.03314 and 0.03312
[5]; dose 0.411523 µM
  prolyl-isomerase activity (raw dose-response value): 0.0325 and 0.0338 and 0.02719
[5]; dose 1.23457 µM
  prolyl-isomerase activity (raw dose-response value): 0.03372 and 0.0315 and 0.03341
[5]; dose 3.7037 µM
  prolyl-isomerase activity (raw dose-response value): 0.03071 and 0.03218 and 0.03337
[5]; dose 11.1111 µM
  prolyl-isomerase activity (raw dose-response value): 0.03272 and 0.0287 and 0.03154
[5]; dose 33.3333 µM
  prolyl-isomerase activity (raw dose-response value): 0.034 and 0.032 and 0.03
[5]; dose 100 µM
  prolyl-isomerase activity (raw dose-response value): 0.0243 and 0.0254 and 0.02366
[5]; prolyl-isomerase inhibition, 5 nM cyclophilin, read-out: IC50 NKTR
  IC50: ~100 µM
[5]; wild-type NKTR, read-out: Wild-Type Cyclophilin Prolyl Isomerase Inhibition IC50 Values, NKTR
  IC50: 100 µM
